In patent US9969719B2, “Substituted 2-hydrogen-pyrazole derivative serving as anticancer drug” (CHIA TAI TIANQING PHARMACEUTICAL GROUP CO., LTD., priority 2015, dated 2018):
Read-outs that look alike come from different tables or passages of the source.

Legend:
[1] = test system: human breast cancer cell line MCF-7; type: in vivo
Description: The in vivo pharmacodynamic study was carried out in human-based tumor cell line-derived xenografted (CDX) BALB/c nude mice, in which were subcutaneously implanted human breast cancer cell line MCF-7.
. All the cages, matts and water were disinfected before use. All the animals had free access to a standard certified commercial laboratory diet. A total of 100 mice were purchased from Shanghai BK Laboratory Animal Co., LTD for study. An estrogen tablet ([…], sustained release within 60 days) was subcutaneously implanted in the left next abdomen of each mice. After 3 days, the tumor cells (10×10^6 in 0.2 mL of phosphate buffer) were subcutaneously implanted in the right next abdomen of each mice for the tumor growth. The administration started when the average tumor volume reached about 150-200 mm^3. The test compounds were orally administered daily, the doses were shown as Table 5. The tumor volumes were measured with a two-dimensional caliper every three days, the volumes were expressed in cubic millimeters and calculated by the formula V=0.5a×b^2, wherein a and b were the major diameter and minor diameter of the tumor, respectively. Antitumor efficacy was determined by dividing an average increase of the tumor volumes of the animals treated with the compounds by an increase of the tumor volumes of the untreated animals.

CDK4/cyclin D1 = biological target: T1, CDK4/cyclin D1 (Homo sapiens, UniProt P11802); assay: CDK4/cyclin D1 Lance Ultra enzyme assay; type: biochemical; conditions: for inhibitory activities against CDK4 compared with the reference compounds: versus Palbociclib and LY2835219, in words; for IC50: 350 μM ATP, 180 minutes
T1 construct: purchased Life Technologies
Description: (§1) The experimental materials included CDK2/cyclin A, CDK4/cyclin D1, CDK6/cyclin D1 (Life Technologies); ULight-labeled polypeptide substrates, i.e., ULight-4E-BP1 and ULight-MBP (PerkinElmer); the europium-labeled antibody against anti-myelin basic protein and europium-labeled rabbit antibody (PerkinElmer); and Envision® Multilabel Plate Reader (PerkinElmer) used for signal detection.
(§2) The compounds to be tested were diluted three times so as to be at ten gradually varied concentrations.
(§3) The dilutions of the compounds were dissolved in enzyme buffer, respectively. The components of the buffer included 50 mM hydroxyethylpiperazine ethanesulfonic acid solution (pH 7.5), 1 mM ethylenediaminetetraacetic acid, 10 mM magnesium chloride, 0.01% Brij-35, and 2 mM dithiothreitol. After the reaction started, the OptiPlate 384-well plate was sealed with top heat-sealing film TopSeal-A and incubated at room temperature for 180 minutes. • The Enzyme Reaction System of CDK6/Cyclin D1
(§4) The stop buffer of the enzyme reaction was prepared by dissolving EDTA in a one-fold dilution of the assay buffer. The reaction was terminated at room temperature for 5 minutes. To each of the reaction systems of CDK2/cyclin A, CDK4/cyclin D1 and CDK6/cyclin D1 was added 5 μL assay mixture (provided with antibody the europium-labeled against anti-myelin basic protein and the europium-labeled rabbit antibody, respectively). They were incubated at room temperature for 60 minutes. The reaction signals were detected by the EnVision instrument according to the principle of time-resolved fluorescence resonance energy transfer.

CDK6/cyclin D1 = biological target: T2, CDK6/cyclin D1 (Homo sapiens, UniProt Q00534); assay: CDK6/cyclin D1 Lance Ultra enzyme assay; type: biochemical; conditions: for IC50: 250 μM ATP, 180 minutes; for inhibitory activities against CDK6 compared with the reference compounds: versus Palbociclib and LY2835219, in words
T2 construct: purchased Life Technologies
Description: as §1, §2
as §3, with “minutes.” for “minutes. • The Enzyme Reaction System of CDK6/Cyclin D1”
as §4

MDA-MB-436 cells = assay: MDA-MB-436 cell proliferation (CellTiter-Glo); type: cell-based; conditions: Homo sapiens
Description: RPMI 1640 medium, fetal bovine serum, penicillin/streptomycin were purchased from Promega (Madison, Wis.). The MCF-7 cell line and the MDA-MB-436 cell line were purchased from the European Collection of Authenticated Cell Cultures (ECACC). EnVision® Multilabel Plate Reader (PerkinElmer) was used.
(§5) The compounds to be tested were diluted three times using Bravo to the tenth concentration, i.e., diluted from 10 μM to 0.508 nM. A duplicate well test was performed. The medium was added to the middle plate in an amount of 49 μL per well. The gradient dilutions of the compounds were transferred in an amount of 1 μL per well to the middle plate at the corresponding positions, and the mixture was mixed and transferred to the cell plate in an amount of 5 μL per well. The cell plate was incubated in a carbon dioxide incubator for 6 days. Promega CellTiter-Glo reagent was added to the cell plate in an amount of 25 μL per well. The cell plate was incubated at room temperature for 10 minutes to stabilize the luminescence signal. EnVision® Multilabel Plate Reader (PerkinElmer) was used for signal detection.
The IC50 values were obtained by curve fitting using four parameters (obtained from the 205 mode in XLFIT5, iDBS). Table 1 provides the inhibitory activities of the compounds of the invention against the proliferation of MCF-7 cells and MDA-MB-436 cells.

MCF-7 cells = assay: MCF-7 cell proliferation (CellTiter-Glo, 6 days); type: cell-based, human; conditions: for IC50: Homo sapiens, MCF7, proliferation, 6 days; for MCF-7/MDA-MB-436: ratio of the proliferation IC50 values; for inhibitory activities against the proliferation of MCF-7 cells compared with the reference compounds: versus Palbociclib and LY2835219, in words
Description: EnVision® Multilabel Plate Reader (PerkinElmer) was used.
MCF-7 cells were inoculated in a black 384-well plate by adding 45 μL of the cell suspension (containing 200 of MCF-7 cells) to each of the wells. The plate was incubated overnight in a carbon dioxide incubator.
as §5, with “A” for “The compounds to be tested were diluted three times using Bravo to the tenth concentration, i.e., diluted from 10 μM to 0.508 nM. A”

CDK2/cyclin A = biological target: T3, CDK2/cyclin A (Homo sapiens, UniProt P24941); assay: CDK2/cyclin A Lance Ultra enzyme assay; type: biochemical; conditions: 25 μM ATP, 60 minutes
T3 construct: purchased Life Technologies
Description: as §1, §2
as §3, with “The gradient dilutions of” for “The dilutions of”, “temperature for 60 minutes. •” for “temperature for 180 minutes. •”, “System of CDK4/Cyclin D1” for “System of CDK6/Cyclin D1”
as §4

[2] = Study of brain permeability after oral administration; type: in vivo, SD rats; conditions: for Exposure in brain: 10 mg/kg oral
Description: SD rats were used as the test animals.
Twelve healthy 7- to 9-week-old adult male SD rats were purchased from Shanghai Slack Laboratory Animal Co., Ltd. A proper amount of the test compound was weighed to prepare a 0.5% methylcellulose suspension at 1 mg/mL. The rats received a single oral dose of 10 mg/kg. 0.5 h, 2 h, 8 h, and 24 hours after the administration, 3 rats were respectively killed, and their whole blood and brain tissues were collected. The plasma was prepared by centrifuging the whole blood (3000 g, 15 minutes, 4° C.). The samples of brain homogenate were prepared by mixing the brain tissues with a mixture of methanol and a phosphate buffer (methanol:phosphate buffer=1:2) as homogenate at a ratio of 5:1. The drug concentration of each sample was determined by LC/MS/MS, and AUC was calculated to evaluate the exposure.

Caco-2 monolayer cells = assay: Caco-2 cell bi-directional permeability assessment; conditions: Caco-2
Description: (§6) The standard experimental conditions were as follows: • Test concentration: 2 μM (DMSO≤1%); • Number of replication: n=2; • Direction: bi-directional transportation, including two directions, i.e., A→B and B→A; • Incubation time: single time point, 2 hours; • Transport buffer: HBSS, pH 7.4; • Incubation conditions: 37° C., 5% CO2.
(§7) After the incubation, sample solutions taken from the dosing wells and the receiving wells were immediately mixed with a cold acetonitrile solution containing the internal standard. Concentrations of the test compounds in all samples (including the initial dosing solutions, the supernatants of the dosing wells and the receiving solutions) were determined by a LC/MS/MS method. The apparent permeability coefficients, the efflux ratios and other parameters were calculated.

[3] = Caco-2 cell bi-directional permeability assessment; conditions: human, Caco-2, pH 7.4
Description: as §6, §7

T1 sequence (P11802 whole entry): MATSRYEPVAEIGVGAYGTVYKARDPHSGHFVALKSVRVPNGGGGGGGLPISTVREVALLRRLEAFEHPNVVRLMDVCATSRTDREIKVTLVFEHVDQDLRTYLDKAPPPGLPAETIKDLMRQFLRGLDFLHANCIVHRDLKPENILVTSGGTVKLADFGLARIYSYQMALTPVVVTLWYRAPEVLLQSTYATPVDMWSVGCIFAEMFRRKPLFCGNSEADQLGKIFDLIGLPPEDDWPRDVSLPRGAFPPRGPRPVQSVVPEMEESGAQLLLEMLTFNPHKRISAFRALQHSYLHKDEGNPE
T1 sequence (P24385 whole entry partner): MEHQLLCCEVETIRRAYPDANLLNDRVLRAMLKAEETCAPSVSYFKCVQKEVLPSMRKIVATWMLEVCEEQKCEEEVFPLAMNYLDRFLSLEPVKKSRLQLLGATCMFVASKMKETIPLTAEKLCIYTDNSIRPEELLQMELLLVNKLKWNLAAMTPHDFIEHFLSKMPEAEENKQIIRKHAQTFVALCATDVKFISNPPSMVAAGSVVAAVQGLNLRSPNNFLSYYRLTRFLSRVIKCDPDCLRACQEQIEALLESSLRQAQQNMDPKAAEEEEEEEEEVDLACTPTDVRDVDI
T2 sequence (Q00534 whole entry): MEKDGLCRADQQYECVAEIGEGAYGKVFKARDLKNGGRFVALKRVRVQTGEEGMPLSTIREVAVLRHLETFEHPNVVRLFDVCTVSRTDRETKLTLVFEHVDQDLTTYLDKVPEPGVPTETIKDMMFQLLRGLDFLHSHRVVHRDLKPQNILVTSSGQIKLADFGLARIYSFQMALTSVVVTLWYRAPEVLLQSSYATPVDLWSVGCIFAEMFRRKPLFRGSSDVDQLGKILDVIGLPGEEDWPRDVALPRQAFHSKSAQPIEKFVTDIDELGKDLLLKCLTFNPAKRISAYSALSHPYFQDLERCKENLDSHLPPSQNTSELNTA
T2 sequence (P24385 whole entry partner): as the sequence (P24385 whole entry partner) above

Row | Structure (SMILES) | inhibitory activities against CDK4 compared with the reference compounds (CDK4/cyclin D1) | IC50 (CDK6/cyclin D1) [nM] | inhibitory activities against CDK6 compared with the reference compounds (CDK6/cyclin D1) | IC50 (MDA-MB-436 cells) [nM] | IC50 (MCF-7 cells) [nM] | IC50 (CDK4/cyclin D1) [nM] | IC50 (CDK2/cyclin A) [nM] | MCF-7/MDA-MB-436 (MCF-7 cells) | inhibitory activities against the proliferation of MCF-7 cells compared with the reference compounds (MCF-7 cells) | other results
1 | CC(C)c1c2cc(-c3nc(Nc4ccc(N5CCNCC5)cn4)ncc3F)ccc2nn1C [Example 3, 5-fluoro-4-(3-isopropyl-2-methyl-2H-indazol-5-yl)-N-(5-(piperazin-1-yl)pyridin-2-yl) pyrimidine-2-amine] | higher inhibitory activities | < 0.8 | higher inhibitory activities | 328 | 32.1 |  |  | 10.2 |  | Tomor volumes ([1]; 25.0 mg/kg orally daily, 0 day): 187 mm^3; Tomor volumes ([1]; 25.0 mg/kg orally daily, 7th day): 249 mm^3; Tomor volumes ([1]; 25.0 mg/kg orally daily, 14th day): 288 mm^3; Tomor volumes ([1]; 25.0 mg/kg orally daily, 21st day): 432 mm^3; antitumor activities in the CDX model of MCF-7 breast cancer ([1]; in words): significant antitumor activities
2 | CC(C)c1c2cc(-c3nc(Nc4ccc(N5CCN(CCN)CC5)cn4)ncc3F)ccc2nn1C [Example 9, N-[5-[4-(2-aminoethyl)piperazin-1-yl]-2-pyridyl]-5-fluoro-4-(3-isopropyl-2-methyl-2H-indazol-5-yl)pyrimidine-2-amine] | higher inhibitory activities | < 0.8 | higher inhibitory activities | 667 | 45 | 0.31 | 5.95 | 14.8 | higher inhibitory activities | 
3 | CC(C)c1c2cc(-c3nc(Nc4ccc(N5CCN(CCO)CC5)cn4)ncc3F)ccc2nn1C [Example 10, 2-[4-[6-[[5-fluoro-4-(3-isopropyl-2-methyl-2H-indazol-5-yl)pyrimidin-2-yl]amino]-3-pyridyl]piperazin-1-yl]ethanol] | higher inhibitory activities | 0.97 | higher inhibitory activities | 496 | 28.9 | 0.88 | 6.62 | 17.2 | higher inhibitory activities | 
4 | CC(C)c1c2cc(-c3nc(Nc4ccc(C5CCNCC5)cn4)ncc3F)ccc2nn1C [Example 13, 5-fluoro-4-(3-isopropyl-2-methyl-2H-indazol-5-yl)-N-[5-(piperidin-4-yl)-2-pyridyl]pyrimidine-2-amine] |  |  |  |  |  |  |  |  |  | exposure in brain tissue compared with the reference compounds ([2]; rat, versus Palbociclib and LY2835219, in words, b797: 0.5 hour and 2 hour): much higher; Classification Substrates of efflux transporters (Caco-2 monolayer cells): not a substrate of an efflux transporter

Continued, in another order:

Row | inhibitory activities against CDK4 compared with the reference compounds (CDK4/cyclin D1) | IC50 (CDK6/cyclin D1) [nM] | inhibitory activities against CDK6 compared with the reference compounds (CDK6/cyclin D1) | IC50 (MDA-MB-436 cells) [nM] | IC50 (MCF-7 cells) [nM] | IC50 (CDK4/cyclin D1) [nM] | IC50 (CDK2/cyclin A) [nM] | Structure (SMILES) | MCF-7/MDA-MB-436 (MCF-7 cells) | inhibitory activities against the proliferation of MCF-7 cells compared with the reference compounds (MCF-7 cells) | other results
5 | higher inhibitory activities | < 0.8 | higher inhibitory activities | 522 | 56 | < 0.3 | 2.82 | CC(C)c1c2cc(-c3nc(Nc4ccc(N5C[C@@H]6C[C@H]5CN6)cn4)ncc3F)ccc2nn1C [Example 15, N-(5-((1 S,4S)-2,5-diazabicyclo[2.2.1]heptan-2-yl)pyridin-2-yl)-5-fluoro-4-(3-isopropyl-2-methyl-2H-indazol-5-yl)pyrimidine-2-amine] | 9.3 | higher inhibitory activities | 
6 |  | 5.79 |  | 3280 | 265 | 1.38 | 32.8 | CC(C)c1c2c(nn1C)CCN(c1nc(Nc3ccc(C4CCN(C)CC4)cn3)ncc1F)C2 [Example 24] | 12.4 |  | 
7 |  |  |  | 1030 |  |  |  | CCN1CCN(Cc2ccc(Nc3ncc(F)c(-c4cc(F)c5nc(C)n(C(C)C)c5c4)n3)nc2)CC1 [LY2835219, Abemaciclib, reference compound] | 17.3 |  | Tomor volumes ([1]; 50.0 mg/kg orally daily, 0 day): 187 mm^3; Tomor volumes ([1]; 50.0 mg/kg orally daily, 7th day): 261 mm^3; Tomor volumes ([1]; 50.0 mg/kg orally daily, 14th day): 315 mm^3; Tomor volumes ([1]; 50.0 mg/kg orally daily, 21st day): 443 mm^3; Exposure in brain ([2]; time point 0.5 h): 62 nmol/kg; Exposure in brain ([2]; time point 2 h): 525 nmol/kg; Exposure in brain ([2]; time point 8 h): 774 nmol/kg; Papp A→B at 2 h, 2 μM [3]: 2.69 ×10⁻⁶ cm/s; Papp B→A at 2 h, 2 μM [3]: 6.34 ×10⁻⁶ cm/s; Classification Permeability (Caco-2 monolayer cells): High
